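Growth conditions: 96-well plates. Treatment: test compound, 48 hours, 5 concentrations. Analysis: linear interpolation between bracketing concentrations; unreached endpoints set to highest concentration. GI50 = concentration required for 50% inhibition of growth.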 Calls of active or inactive are those of the source. Cut-off read from the data, not from the text of the source: active = GI50 up to about 1.1 µM and inactive = higher.

These results are taken from ChEMBL document CHEMBL1201862, “PubChem BioAssay data set” (2004).

Some test systems named below: A498; ACHN; EKVX; HCT-15; HL-60; Hs-578T; IGROV-1; K562; KM12; MDA-MB-435; MDA-N; NCI/ADR-RES; PC-3; SF-268; SK-OV-3; SN12C; SNB-75; UACC-257; HCC 2998.
Common to all, as to assay: growth of human tumour cells (NCI), 48 h

`CCOC(=S)SCC(=O)O`: the GI50 with A498 was > 100 µM (inactive); with ACHN, > 100 µM (inactive); in the test with EKVX, > 100 µM (inactive); in the test on HCT-15 it was greater than 100 µM; with HL-60 it was 2.01 µM (inactive); with Hs-578T, > 100 µM (inactive). The GI50 with IGROV-1, in the test on K562, in the test with KM12, in the test with MDA-MB-435, in the test with MDA-N and in the test on NCI/ADR-RES was > 100 µM (inactive) throughout. The GI50 with PC-3, in the test on SF-268, in the test with SK-OV-3, in the test on SN12C, in the test on SNB-75 and in the test on UACC-257 was > 100 µM (inactive) each time.

With `O/N=C1\CCc2nonc2\C1=N/Nc1ccccc1`, the GI50 in the test on ACHN was 43.7 µM (inactive); with EKVX, 39.9 µM (inactive); with HCC 2998 it was > 100 µM (inactive); with HCT-15 it was greater than 100 µM; with HL-60, > 100 µM (inactive); with Hs-578T, > 100 µM (inactive). Moreover, the GI50 with IGROV-1, in the test with K562, in the test with KM12, in the test with MDA-MB-435, in the test with MDA-N and in the test with NCI/ADR-RES was > 100 µM (inactive) each time. Moreover, the GI50 with PC-3, in the test with SF-268, in the test with SK-OV-3, in the test on SN12C, in the test with SNB-75 and in the test on UACC-257 was > 100 µM (inactive) each time.

Regarding `O=c1c2ccccc2nc2[nH][nH]c(=S)n12`, the GI50 in the test on A498 is > 100 µM (inactive); in the test on ACHN it was > 100 µM (inactive); in the test on EKVX, 83.6 µM (inactive); in the test on HCT-15, greater than 100 µM; with HL-60 it was > 100 µM (inactive); in the test on Hs-578T it was 43.3 µM (inactive). Moreover, the GI50 in the test on IGROV-1, in the test on K562, in the test on KM12, in the test on MDA-MB-435, with MDA-N and in the test with NCI/ADR-RES was > 100 µM (inactive) throughout. The GI50 in the test with PC-3 was > 100 µM (inactive); in the test with SF-268 it was > 100 µM (inactive); with SK-OV-3 it was > 100 µM (inactive); in the test on SN12C it was > 100 µM (inactive); in the test with SNB-75, 48.4 µM (inactive); with UACC-257, > 100 µM (inactive).

Consider `COc1ccc2cc(NC(=O)N/N=C\c3ccc(Cl)cc3)ccc2c1`, for which the GI50 in the test with ACHN is > 100 µM (inactive); in the test on EKVX, > 100 µM (inactive); in the test with HCC 2998 it was > 100 µM (inactive); in the test with HCT-15, greater than 100 µM; in the test with HL-60, > 100 µM (inactive); with Hs-578T, 24 µM (inactive). The GI50 in the test with IGROV-1 was 88.7 µM (inactive); with K562, > 100 µM (inactive); with KM12, > 100 µM (inactive); in the test on MDA-MB-435 it was 69.8 µM (inactive); with MDA-N it was > 100 µM (inactive); in the test on NCI/ADR-RES it was 86.3 µM (inactive). Besides, the GI50 with PC-3 was > 100 µM (inactive); with SF-268, 44.1 µM (inactive); with SK-OV-3 it was > 100 µM (inactive); in the test with SN12C, > 100 µM (inactive); in the test on SNB-75, 72.3 µM (inactive); in the test with UACC-257 it was > 100 µM (inactive).

Consider `CCOC(=O)Cc1ccc(Nc2nc3cc(F)c(F)cc3nc2C(=O)OCC)cc1`, for which the GI50 in the test on ACHN was 18.4 µM (inactive); in the test on EKVX it was 22.8 µM (inactive); with HCC 2998, 25.6 µM (inactive); in the test on HCT-15, 21.8 µM; in the test with HL-60 it was 39.3 µM (inactive); in the test with Hs-578T, 64.7 µM (inactive). For the same compound, the GI50 in the test on IGROV-1 was 28.7 µM (inactive); in the test on K562 it was 35.7 µM (inactive); in the test on KM12, > 100 µM (inactive); in the test with MDA-MB-435, 65.6 µM (inactive); in the test with MDA-N, 45 µM (inactive); with NCI/ADR-RES, 43.9 µM (inactive). For the same compound, the GI50 was 49.5 µM (inactive) in the test with PC-3; 64.9 µM (inactive) in the test on SF-268; > 100 µM (inactive) in the test with SK-OV-3; 74.5 µM (inactive) in the test on SN12C; 81.8 µM (inactive) in the test on SNB-75; 44.2 µM (inactive) with UACC-257.

For `Cn1c(=O)c2c([nH]/c(=N/N=C/c3ccccc3C(=O)O)n2C)n(C)c1=O`, the GI50 with A498 is > 100 µM (inactive); in the test with ACHN it was > 100 µM (inactive); in the test with EKVX, > 100 µM (inactive); in the test with HCT-15, greater than 100 µM; in the test on HL-60, > 100 µM (inactive); with Hs-578T it was > 100 µM (inactive). Moreover, the GI50 with IGROV-1, in the test with K562, with KM12, in the test with MDA-MB-435, with MDA-N and in the test with NCI/ADR-RES was > 100 µM (inactive) each time. For the same compound, the GI50 in the test with PC-3, with SF-268, in the test with SK-OV-3, in the test with SN12C, with SNB-75 and in the test on UACC-257 was > 100 µM (inactive) in each case.

`COC1OC(Cn2cc([N+](=O)[O-])nc2C)C(O)C(O)C1O` (stereo not given): the GI50 with A498 was > 100 µM (inactive); in the test with ACHN, > 100 µM (inactive); with EKVX it was > 100 µM (inactive); in the test with HCC 2998, > 100 µM (inactive); in the test on HCT-15, greater than 100 µM; in the test with Hs-578T, > 100 µM (inactive). Also, the GI50 with IGROV-1, in the test on K562, in the test with KM12, in the test with MDA-MB-435, with MDA-N and with NCI/ADR-RES was > 100 µM (inactive) in each case. The GI50 in the test on PC-3, in the test on SK-OV-3 and in the test on UACC-257 was > 100 µM (inactive) each time.

On to `N#CC1=CNc2sccc2S1(=O)=O`, for which the GI50 in the test with A498 is > 100 µM (inactive); with ACHN, > 100 µM (inactive); with EKVX it was > 100 µM (inactive); in the test on HCC 2998, 39.8 µM (inactive); in the test on HCT-15, 61.9 µM; with Hs-578T it was > 100 µM (inactive). In addition, the GI50 with IGROV-1 is > 100 µM (inactive); in the test with KM12, 1.68 µM (inactive); in the test on MDA-MB-435 it was 89.7 µM (inactive); with MDA-N, > 100 µM (inactive); in the test with NCI/ADR-RES it was > 100 µM (inactive); in the test on PC-3, > 100 µM (inactive). For the same compound, the GI50 in the test with SF-268 is 81.7 µM (inactive); in the test on SK-OV-3, > 100 µM (inactive); in the test with SN12C, > 100 µM (inactive); in the test on SNB-75, > 100 µM (inactive); in the test with UACC-257, > 100 µM (inactive).

Turning to `O=C(CC1(O)CCCCC1)OC1CCCC1`, the GI50 in the test with A498 is > 100 µM (inactive); with ACHN it was > 100 µM (inactive); in the test on EKVX, > 100 µM (inactive); in the test on HCT-15 it was greater than 100 µM; in the test with Hs-578T, > 100 µM (inactive); in the test with IGROV-1, > 100 µM (inactive). In addition, the GI50 in the test on KM12, in the test on MDA-MB-435, with MDA-N, with NCI/ADR-RES, in the test with PC-3 and with SF-268 was > 100 µM (inactive) each time. Also, the GI50 in the test on SK-OV-3, in the test with SN12C, with SNB-75 and with UACC-257 was > 100 µM (inactive) throughout.

For the compound `COCOc1c(C(OCOC)c2cnc(Sc3ccccc3)n2C)ccc(OC)c1OC` (stereo not given), the GI50 was > 100 µM (inactive) with ACHN; > 100 µM (inactive) with EKVX; > 100 µM (inactive) in the test with HCC 2998; greater than 100 µM in the test with HCT-15; > 100 µM (inactive) with HL-60; 94.4 µM (inactive) with Hs-578T. Further, the GI50 in the test on IGROV-1 is > 100 µM (inactive); in the test with K562, > 100 µM (inactive); with KM12, > 100 µM (inactive); in the test with MDA-MB-435, > 100 µM (inactive); with MDA-N, > 100 µM (inactive); in the test with NCI/ADR-RES, 94.4 µM (inactive). Besides, the GI50 in the test on PC-3 was > 100 µM (inactive); in the test with SF-268, > 100 µM (inactive); with SK-OV-3, > 100 µM (inactive); in the test on SN12C, > 100 µM (inactive); with SNB-75 it was 35.3 µM (inactive); in the test with UACC-257, 63.2 µM (inactive).

On to `CC(C)C(CC(=O)OCC(CO)OC(=O)CC(C(C)C)C(C)C)C(C)C` (stereo not given), for which the GI50 with A498 is 15.3 µM (inactive); in the test on ACHN, 10.9 µM (inactive); in the test with EKVX it was 14 µM (inactive); in the test on HCC 2998 it was 15.8 µM (inactive); with HCT-15, 16.9 µM; in the test on Hs-578T, 4.85 µM (inactive). The GI50 was 19.1 µM (inactive) in the test with IGROV-1; 6 µM (inactive) in the test with K562; 15.7 µM (inactive) with KM12; 13.7 µM (inactive) in the test with MDA-MB-435; 13.6 µM (inactive) in the test with MDA-N; 13.5 µM (inactive) in the test on NCI/ADR-RES. Further, the GI50 was 14.4 µM (inactive) in the test on PC-3; 14.3 µM (inactive) with SF-268; 16.7 µM (inactive) in the test on SK-OV-3; 12.9 µM (inactive) with SN12C; 10.2 µM (inactive) in the test with SNB-75; 17.1 µM (inactive) in the test with UACC-257.

Turning to `CSc1nc(Cl)c2c(n1)Sc1nc3cc4c(cc3n1C2O)OCO4` (stereo not given), the GI50 is 3.44 µM (inactive) in the test on A498; 0.946 µM (active) in the test with ACHN; 5.75 µM (inactive) in the test with EKVX; 1.66 µM (inactive) with HCC 2998; 0.31 µM in the test on HCT-15; 1.05 µM (active) in the test on Hs-578T. Moreover, the GI50 was 0.392 µM (active) in the test with IGROV-1; 0.29 µM (active) in the test with K562; 0.194 µM (active) with KM12; 0.232 µM (active) in the test on MDA-MB-435; 0.237 µM (active) in the test on MDA-N; 0.385 µM (active) in the test on NCI/ADR-RES. Also, the GI50 with PC-3 is 0.306 µM (active); with SF-268, 0.637 µM (active); in the test on SK-OV-3 it was 1.72 µM (inactive); in the test on SN12C, 0.578 µM (active); with SNB-75 it was 3.75 µM (inactive); in the test with UACC-257, > 58.7 µM (inactive).
